Target: Peroxisome proliferator-activated receptor gamma (Homo sapiens, UniProt P37231)
Test: PubChem AID 463257

Chain of Peroxisome proliferator-activated receptor gamma (P37231 whole entry, looked up): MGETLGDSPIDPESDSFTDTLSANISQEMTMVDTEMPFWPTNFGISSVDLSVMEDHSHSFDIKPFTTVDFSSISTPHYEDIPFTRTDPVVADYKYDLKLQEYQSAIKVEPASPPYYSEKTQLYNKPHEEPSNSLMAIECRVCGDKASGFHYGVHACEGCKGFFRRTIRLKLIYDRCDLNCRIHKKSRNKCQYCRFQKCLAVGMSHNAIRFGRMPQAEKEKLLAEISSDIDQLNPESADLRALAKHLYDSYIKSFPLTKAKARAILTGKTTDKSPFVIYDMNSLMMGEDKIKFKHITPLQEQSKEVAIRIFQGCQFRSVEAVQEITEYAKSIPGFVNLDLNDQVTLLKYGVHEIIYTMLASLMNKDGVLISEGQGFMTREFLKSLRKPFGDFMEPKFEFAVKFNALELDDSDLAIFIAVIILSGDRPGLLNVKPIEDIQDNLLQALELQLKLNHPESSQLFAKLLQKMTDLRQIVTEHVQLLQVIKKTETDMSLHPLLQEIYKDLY

IC50: 24.7 µM
Structure (SMILES): COc1ccc(-n2cc(O)c(-c3nc(-c4ccccc4)cs3)c2N)cc1 [5-amino-1-(4-methoxyphenyl)-4-(4-phenyl-1,3-thiazol-2-yl)-2H-pyrrol-3-one]

— BindingDB's records for doi:10.7270/Q26T0K34 (The Scripps Research Institute Molecular Screening Center, 2010)
